Data as given in ChEMBL document CHEMBL3616425, “Factors influencing the cytotoxicity of α-methylene-γ-hydroxy esters against pancreatic cancer” (2015).

Legend:
Type in all cases: functional
[1] = Cytotoxicity against human PANC1 cells assessed as cell growth at 10 uM after 72 hrs by Cell Titer 96 cell proliferation assay relative to control; settings: PANC-1, 72 h, read-out: Activity
[2] = Cytotoxicity against human MIAPaCa2 cells assessed as cell growth at 10 uM after 72 hrs by Cell Titer 96 cell proliferation assay relative to control; settings: MIA PaCa-2, 72 h, read-out: Activity
[3] = Cytotoxicity against human BxPC3 cells assessed as cell growth at 10 uM after 72 hrs by Cell Titer 96 cell proliferation assay relative to control; settings: BXPC-3, 72 h, read-out: Activity

Row | SMILES | growth at 10 µM [1] | growth at 10 µM [2] | growth at 10 µM [3]
1 | C=C(C(=O)OC)C(O)c1ccc(F)cc1 (stereo not given) | 136% | 118% | 137%
2 | C=C(C(=O)OC)C(O)c1ccc(C(F)(F)F)cc1 (stereo not given) | 93% | 27% | 69%
3 | C=C(C(=O)OC)C(O)c1ccccc1 (stereo not given) | 118% | 119% | 129%
4 | C=C(C(=O)OC)C(O)c1ccc([N+](=O)[O-])cc1 (stereo not given) | 138% | 98% | 123%
5 | C=C(C(=O)OC)C(C)CO (stereo not given) | 120% | 124% | 126%
6 | C=C(C(=O)OC)C(CO)C1CCCCC1 (stereo not given) | 164% | 98% | 86%
7 | C=C(C(=O)OC)C(CO)c1ccccc1 (stereo not given) | 102% | 29% | 60%
8 | C=C(CC(O)c1ccccc1)C(=O)OC (stereo not given) | 67% | 14% | 1%
9 | C=C(C(=O)OCC)C(O)c1ccc(OC)cc1 (stereo not given) | 108% | 110% | 130%
10 | C=C(C(=O)OC)C(O)c1ccc(C#N)cc1 (stereo not given) | 131% | 94% | 126%
11 | C=C(C(=O)OC)C(O)c1cccc(F)c1 (stereo not given) | 166% | 129% | 134%
12 | C=C(C(=O)OC)C(O)c1ccccc1F (stereo not given) | 157% | 128% | 137%
13 | C=C(C(=O)OC)C(O)c1c(F)c(F)c(F)c(F)c1F (stereo not given) | 147% | 111% | 117%
14 | C=C(C(=O)OC)C(O)c1ccccc1C(F)(F)F (stereo not given) | 169% | 127% | 142%
15 | C=C1C(=O)OC1c1ccc(C#N)cc1 (stereo not given) | 102% | 99% | 116%
16 | C=C1C(=O)OC1c1ccc([N+](=O)[O-])cc1 (stereo not given) | 136% | 123% | 133%
17 | C=C(C(=O)O)C(O)c1ccccc1 (stereo not given) | 127% | 94% | 110%
18 | C=C(C(=O)O)C(O)c1ccc(OC)cc1 (stereo not given) | 125% | 106% | 110%
19 | C=C(C(=O)O)C(O)c1ccc(C#N)cc1 (stereo not given) | 108% | 92% | 114%
20 | C=C(C(=O)O)C(O)c1ccc([N+](=O)[O-])cc1 (stereo not given) | 134% | 130% | 124%

Row | SMILES | growth at 10 µM [1] | growth at 10 µM [2] | growth at 10 µM [3]
21 | C=C(C(=O)O)C(O)c1ccc(C(F)(F)F)cc1 (stereo not given) | 129% | 119% | 121%
22 | C=C1C(=O)O[C@@H]2C3O[C@]3(C)CC/C=C(\C)CC[C@@H]12 (stereo not given in full) | 22% | 11% | 12%
23 | C=C1C(=O)O[C@H](c2ccccc2)[C@@H]1c1ccccc1 (relative stereo) | 12% | 9% | 3%
24 | C=C(C(=O)OC)[C@@H](c1ccccc1)[C@H](O)c1ccccc1 (relative stereo) | 14% | 9% | 2%
25 | C=C(C(=O)OC)[C@@H](C)[C@@H](C)O (relative stereo) | 110% | 147% | 122%
26 | C=C(C(=O)OC)[C@@H](C1CCCCC1)[C@@H](C)O (relative stereo) | 145% | 77% | 120%
27 | C=C(C(=O)OC)[C@@H](C)[C@H](O)c1ccccc1 (relative stereo) | 91% | 32% | 49%
28 | C=C(C(=O)OC)[C@@H](CCC)[C@H](O)c1ccccc1 (relative stereo) | 104% | 32% | 38%
29 | C=C(C(=O)OC)[C@@H](c1ccccc1)[C@@H](C)O (relative stereo) | 96% | 24% | 27%
30 | C=C(C(=O)OC)[C@@H](c1ccccc1)[C@H](O)C1CCCCC1 (relative stereo) | 83% | 29% | 23%
31 | C=C(C(=O)OC)[C@@H](c1ccccc1)[C@H](O)CCC (relative stereo) | 33% | 16% | 8%
32 | C=C(C(=O)OC)[C@@H](c1ccccc1)[C@H](O)Cc1ccccc1 (relative stereo) | 14% | 16% | 6%
33 | C=C(C(=O)OC)[C@@H](c1ccccc1)[C@H](OC)c1ccccc1 (relative stereo) | 123% | 102% | 94%
34 | C=C(C(=O)OC)[C@@H](c1ccccc1)[C@H](O[Si](C)(C)C(C)(C)C)c1ccccc1 (relative stereo) | 135% | 110% | 117%
35 | C=C(C(=O)OCC)[C@@H](c1ccccc1)[C@H](O)c1ccccc1 (relative stereo) | 5% | 13% | 3%
36 | C=C(C(=O)OCc1ccccc1)[C@@H](c1ccccc1)[C@H](O)c1ccccc1 (relative stereo) | 6% | 12% | 2%
37 | C=C(C(=O)Oc1ccccc1)[C@@H](c1ccccc1)[C@H](O)c1ccccc1 (relative stereo) | 9% | 8% | 1%
38 | C=C(C(C)=O)[C@@H](c1ccccc1)[C@H](O)c1ccccc1 (relative stereo) | 105% | 53% | 104%
39 | C=C(C[C@@H](c1ccccc1)[C@H](O)c1ccccc1)C(=O)OC (relative stereo) | 124% | 59% | 129%
40 | O=C1O[C@H](c2ccccc2)[C@H](c2ccccc2)/C1=C\c1ccccc1 (relative stereo) | 105% | 87% | 117%
